Measured values published in BindingDB's records for doi:10.1021/jm1001698 (Institute of Health Sciences, 2010).
pIC50: −log10 of the molar value.

Biological target: Bcl-xL (Homo sapiens)
Test: Displacement of FITC-labeled Bak-BH3 peptide from Bcl-XL after 1 hr by fluorescence polarization assay

C=c1c(-c2c(O)c3c(C=N[C@@H]4C(=O)N5[C@@H]4SC(C)(C)[C@@H]5C(=O)O)c(O)c(O)c(=C(C)C)c3c(O)c2=C)c(O)c2c(C=N[C@@H]3C(=O)N4[C@@H]3SC(C)(C)[C@@H]4C(=O)O)c(O)c(O)c(=C(C)C)c2c1O [sodium(2S,2'S,5R,5'R,6R,6'R)-6,6'-((1E,1'E)-(6,6',7,7'-tetrahydroxy-5,5'-diisopropyl-3,3'-dimethyl-1,1',4,4'-tetraoxo-1,1',4,4'-tetrahydro-2,2'-binaphthyl-8,8'-diyl)bis(methan-1-yl-1-ylidene)bis(azan-1-yl-1-ylidene))bis(3,3-dimethyl-7-oxo-4-thia-1-azabicyclo[3.2.0]heptane-2-carboxylate)]
pIC50: 5.75
